System: Human gastric cancer cell HGC-27
Assay: In-vitro anti-tumor activity test by MTT method
Assay type: cell-based
Details: HGC-27 cells, 24 hours incubation with compound, OD 570 nm
Description: Anti-Tumor Activity Test of Compounds
The in-vitro anti-tumor activity of the compounds was tested by tetramethylazoazole colorimetric (MTT) method. Human gastric cancer cell HGC-27 was used as a test cell. 5-fluorouracil (5-FU) was selected as the positive control drug. Human gastric cancer cell HGC-27 in the exponential growth phase was made into a cell suspension with 4×10^3 cells/mL, inoculated in a 96-well plate, and cultured in a CO2 incubator for 36 hours. The test solution (10 μL) of the compound to be tested was added into the test wells, with parallel wells being set for each concentration. The same amount of DMSO was used as a blank control. The plate was incubated in a CO2 incubator for 24 hours, then the supernatant was discarded, and 10 μL of 5% MTT was added to each well. Then the plate was incubated for 4 hours, and the supernatant was sucked and discarded. Subsequently, 100 μL of DMSO was added to each well, and the plate was shaken in a shaker for 20 minutes. The OD value was measured with a microplate reader at a wavelength of 570 nm, and the cell inhibition rate was calculated. Cell inhibition rate=(OD value of negative control group−OD value of tested substance group)/OD value of negative control group×100%. The IC50 value of each compound was calculated by the probability unit weighted regression method.

| Compound | IC50 [µM] |
| --- | --- |
| O=c1[nH]cc(F)c(=O)[nH]1 [Compound 5-FU, 5-fluorouracil, reference compound] | 34.1 |
| COc1ccc(-c2nc(C(=O)N/N=C/c3c(C)nn(C)c3Oc3ccc(F)cc3F)cc3c2[nH]c2ccccc23)cc1OC [Id] | 1.27 |
| COc1ccc(-c2nc(C(=O)N/N=C/c3c(C)nn(C)c3Oc3ccc(Cl)cc3)cc3c2[nH]c2ccccc23)cc1OC [Ia] | 10.1 |
| COc1ccc(-c2nc(C(=O)N/N=C/c3c(C)nn(C)c3Oc3ccc(F)cc3)cc3c2[nH]c2ccccc23)cc1OC [Ic] | 7.03 |
| COc1ccc(Oc2c(/C=N/NC(=O)c3cc4c([nH]c5ccccc54)c(-c4ccc(OC)c(OC)c4)n3)c(C)nn2C)cc1 [Ib] | 1.89 |

From patent publication US12358914B2, “Preparation method and use of pyrazole compound containing 1-(3,4-dimethoxyphenyl)-β-carboline unit” (NANTONG UNIVERSITY, priority 2020, dated 2025)
